This note sets out measurements from patent US20250346585A1 (Alexion Pharmaceuticals, Inc., priority 2022, published 2025).

What is called IC50 is the midpoint of a concentration-inhibition curve.

SMILES strings stand for the structures.

Chain of Human complement C1s enzyme (P09871 438-688 limits assumed): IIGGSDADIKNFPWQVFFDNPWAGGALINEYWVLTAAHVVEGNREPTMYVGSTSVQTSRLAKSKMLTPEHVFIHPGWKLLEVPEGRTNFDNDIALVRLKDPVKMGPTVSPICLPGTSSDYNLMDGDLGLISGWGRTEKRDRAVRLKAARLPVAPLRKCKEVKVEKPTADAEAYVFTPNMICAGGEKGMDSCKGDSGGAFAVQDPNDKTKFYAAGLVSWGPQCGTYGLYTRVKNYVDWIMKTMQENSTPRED
Chain of Human complement C1s enzyme (P09871 16-437 partner limits assumed): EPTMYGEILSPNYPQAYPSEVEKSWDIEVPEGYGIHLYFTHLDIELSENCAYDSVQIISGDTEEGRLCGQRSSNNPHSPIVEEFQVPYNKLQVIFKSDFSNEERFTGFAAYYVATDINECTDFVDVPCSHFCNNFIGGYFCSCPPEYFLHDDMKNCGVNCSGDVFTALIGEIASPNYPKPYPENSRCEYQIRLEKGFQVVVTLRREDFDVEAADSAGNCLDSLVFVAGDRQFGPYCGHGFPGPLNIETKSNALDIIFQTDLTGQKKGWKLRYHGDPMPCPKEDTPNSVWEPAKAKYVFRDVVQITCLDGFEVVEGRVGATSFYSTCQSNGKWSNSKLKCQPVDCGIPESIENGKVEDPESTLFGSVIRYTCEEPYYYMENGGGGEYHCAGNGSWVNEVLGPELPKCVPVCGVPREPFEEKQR

The test concerns the target Human complement C1s enzyme (Homo sapiens (Human), UniProt P09871). The experiment in a line: Human C1s enzyme assay. The class given is biochemical. The following applies: Human C1s enzyme assay of Example 3; read-out: IC50 (Stars). A digest of the protocol:
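IC50 derived by nonlinear regression of rate versus concentration, with rate taken from A405 kinetics (30 s intervals, 30 min) after adding 100 μM each Z-L-Lys-SBzl and DTNB. C1s from human serum, 1.16 nM, exposed to compound for 5 min at RT beforehand; buffer 50 mM Tris, 1 M NaCl, pH 7.5.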
For `Cc1ccc(-c2cccc(C(=O)NCC(=O)N3CC4(C[C@H]3C(=O)N[C@H](C)c3cc(C(=N)N)cs3)OCCO4)c2)cc1` [Compound 120, (S)—N—((R)-1-(4-carbamimidoylthiophen-2-yl)ethyl)-7-((4′-methyl-[1,1′-biphenyl]-3-carbonyl)glycyl)-1,4-dioxa-7-azaspiro[4.4]nonane-8-carboxamide], the IC50 was below 100 nM.

Consider `C[C@@H](NC(=O)[C@@H]1C[C@]2(C)C[C@@H]2N1C(=O)CNC(=O)c1ccc2c(c1)C(F)(F)c1ccccc1-2)c1cc(C(=N)N)cs1` [Compound 121, (1S,3S,5S)—N-[(1R)-1-(4-carbamimidoylthiophen-2-yl)ethyl]-2-{2-[(9,9-difluorofluoren-2-yl)formamido]acetyl}-5-methyl-2-azabicyclo[3.1.0]hexane-3-carboxamide], for which the IC50 was below 100 nM.

As to `Nc1ncccc1-c1csc(CNC(=O)[C@@H]2CC3(CN2C(=O)CNC(=O)c2ccc(Oc4ccc(F)cc4)cc2)OCCO3)c1` [Compound 122, (S)—N-((4-(2-aminopyridin-3-yl)thiophen-2-yl)methyl)-7-((4-(4-fluorophenoxy)benzoyl)glycyl)-1,4-dioxa-7-azaspiro[4.4]nonane-8-carboxamide], the IC50 was above 1000 nM.

`Nc1ccc(-c2csc(CNC(=O)[C@@H]3CC4(CN3C(=O)CNC(=O)c3ccc(Oc5ccc(F)cc5)cc3)OCCO4)c2)cn1` [Compound 123, (S)—N-((4-(6-aminopyridin-3-yl)thiophen-2-yl)methyl)-7-((4-(4-fluorophenoxy)benzoyl)glycyl)-1,4-dioxa-7-azaspiro[4.4]nonane-8-carboxamide]: the IC50 is above 1000 nM.

Take `O=C(NCC(=O)N1CC2(C[C@H]1C(=O)NCc1cccs1)OCCO2)c1ccc(Oc2ccc(F)cc2)cc1` [Compound 124, (S)-7-((4-(4-fluorophenoxy)benzoyl)glycyl)-N-(thiophen-2-ylmethyl)-1,4-dioxa-7-azaspiro [4.4]nonane-8-carboxamide]: the IC50 was above 1000 nM.

Consider `CC(=O)ONC(=N)c1csc([C@@H](C)NC(=O)[C@@H]2CC3(CN2C(=O)CNC(=O)c2ccc4c(c2)-c2ccccc2C4(F)F)OCCO3)c1` [Compound 125, (S)—N—((R)-1-(4-(N-acetoxycarbamimidoyl)thiophen-2-yl)ethyl)-7-((9,9-difluoro-9H-fluorene-3-carbonyl)glycyl)-1,4-dioxa-7-azaspiro[4.4]nonane-8-carboxamide], for which the half-maximal inhibitory concentration (IC50) was below 100 nM.

Regarding `Cc1ccc(-c2ccc(C(=O)NCC(=O)N3CC4(C[C@H]3C(=O)N[C@H](C)c3cc(C(=N)N)cs3)OCCO4)cc2)cc1` [Compound 126, (S)—N—((R)-1-(4-carbamimidoylthiophen-2-yl)ethyl)-7-((4′-methyl-[1,1′-biphenyl]-4-carbonyl)glycyl)-1,4-dioxa-7-azaspiro[4.4]nonane-8-carboxamide], the IC50 is below 100 nM.

As to `C[C@@H](NC(=O)[C@@H]1CC2(CN1C(=O)CNC(=O)c1ccc3c(c1)-c1ccccc1C3F)OCCO2)c1cc(C(=N)N)cs1` (stereo partly drawn) [Compound 127, (8S)—N—((R)-1-(4-carbamimidoylthiophen-2-yl)ethyl)-7-((9-fluoro-9H-fluorene-3-carbonyl)glycyl)-1,4-dioxa-7-azaspiro[4.4]nonane-8-carboxamide], the IC50 was below 100 nM.

With `C[C@@H](NC(=O)[C@@H]1CC2(CN1C(=O)CNC(=O)c1ccc3c(c1)-c1ccccc1C3(F)F)OCCO2)c1cc(C(=N)NO)cs1` [Compound 128, (S)-7-((9,9-difluoro-9H-fluorene-3-carbonyl)glycyl)-N—((R)-1-(4-(N-hydroxycarbamimidoyl)thiophen-2-yl)ethyl)-1,4-dioxa-7-azaspiro[4.4]nonane-8-carboxamide], the IC50 was below 100 nM.

For `C[C@@H](NC(=O)[C@@H]1CC2(CN1C(=O)CNC(=O)c1ccc3c(c1)-c1ccccc1C3(F)F)OCCO2)c1cc(-c2cocn2)cs1` [Compound 129, (8S)-7-{2-[(9,9-difluorofluoren-3-yl)formamido]acetyl}-N-[(1R)-1-[4-(1,3-oxazol-4-yl)thiophen-2-yl]ethyl]-1,4-dioxa-7-azaspiro[4.4]nonane-8-carboxamide], the IC50 is above 1000 nM.
